Data from ChEMBL document CHEMBL5137054, “Xyloketal B Reverses Nutritional Hepatic Steatosis, Steatohepatitis, and Liver Fibrosis through Activation of the PPARα/PGC1α Signaling Pathway” (J Nat Prod, 2022).
Active and inactive are the calls of the source.

Legend:
Type in all cases: functional, organism-based
Conditions in all cases: time 6.0 weeks
[1] = test system: Mus musculus; assay: Upregulation of Cpt1b gene transcriptional level in HFD-induced C57BL/6J mouse model of NAFL at 15 mg/kg/day, ip administered from week 7 to week 12 by qRT-PCR analysis
[2] = test system: Mus musculus; assay: Upregulation of Acox2 gene transcriptional level in HFD-induced C57BL/6J mouse model of NAFL at 15 mg/kg/day, ip administered from week 7 to week 12 by qRT-PCR analysis
[3] = test system: Mus musculus; assay: Upregulation of Cyp4a14 gene transcriptional level in HFD-induced C57BL/6J mouse model of NAFL at 15 mg/kg/day, ip administered from week 7 to week 12 by qRT-PCR analysis
[4] = test system: Mus musculus; assay: Upregulation of Cyp4a10 gene transcriptional level in HFD-induced C57BL/6J mouse model of NAFL at 15 mg/kg/day, ip administered from week 7 to week 12 by qRT-PCR analysis
[5] = test system: Mus musculus; assay: Upregulation of Acox1 gene transcriptional level in HFD-induced C57BL/6J mouse model of NAFL at 15 mg/kg/day, ip administered from week 7 to week 12 by qRT-PCR analysis
[6] = test system: Mus musculus; assay: Upregulation of Cpt1c gene transcriptional level in HFD-induced C57BL/6J mouse model of NAFL at 15 mg/kg/day, ip administered from week 7 to week 12 by qRT-PCR analysis
[7] = test system: Mus musculus; assay: Upregulation of Acaa1a gene transcriptional level in HFD-induced C57BL/6J mouse model of NAFL at 15 mg/kg/day, ip administered from week 7 to week 12 by qRT-PCR analysis
[8] = test system: Mus musculus; assay: Upregulation of Cpt1a gene transcriptional level in HFD-induced C57BL/6J mouse model of NAFL at 15 mg/kg/day, ip administered from week 7 to week 12 by qRT-PCR analysis
[9] = test system: Mus musculus; assay: Upregulation of Medium-chain specific acyl-CoA dehydrogenase gene transcriptional level in HFD-induced C57BL/6J mouse model of NAFL at 15 mg/kg/day, ip administered from week 7 to week 12 by qRT-PCR analysis
[10] = test system: Mus musculus; assay: Upregulation of peroxisomal bifunctional enzyme gene transcriptional level in HFD-induced C57BL/6J mouse model of NAFL at 15 mg/kg/day, ip administered from week 7 to week 12 by qRT-PCR analysis
[11] = test system: Mus musculus; assay: Upregulation of long-chain specific acyl-CoA dehydrogenase gene transcriptional level in HFD-induced C57BL/6J mouse model of NAFL at 15 mg/kg/day, ip administered from week 7 to week 12 by qRT-PCR analysis

Measured: Activity

CC(C)c1c(C(=O)Nc2ccccc2)c(-c2ccccc2)c(-c2ccc(F)cc2)n1CC[C@@H](O)C[C@@H](O)CC(=O)O
active: [1] | [2] | [3] | [4] | [5] | [6] | [7] | [8] | [9] | [10] | [11]
